Measured values as given in patent publication US20260262643A1, “HERBICIDAL BENZOXAZINES” (FMC CORPORATION, priority 2022, published 2026).

Assays:
barnyardgrass [1] = experiment: Test C preemergence; assay type: in vivo, Echinochloa crusgalli; conditions: 0 to 100 scale (0 no effect, 100 complete control)
Summary of the method: (§1)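 Visual injury ratings on a 0–100 scale (100 = complete control) were made against untreated controls 10 days after treatment in the greenhouse. Compounds, formulated with surfactant in non-phytotoxic solvent, were sprayed on soil preemergence or onto one- to two-leaf plants 2–10 cm tall postemergence.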

pigweed, palmer [2] = experiment: Test C preemergence; assay type: in vivo, Amaranthus palmeri; conditions: Preemergence, 500 g ai/ha; visual rating after 10 days, 0 to 100 scale (0 no effect, 100 complete control)
Summary of the method: as §1

corn [3] = experiment: Test C preemergence; assay type: in vivo, Zea mays; conditions: 0 to 100 scale (0 no effect, 100 complete control)
Summary of the method: as §1

ryegrass, Italian [4] = experiment: Test C postemergence; assay type: in vivo, Lolium multiflorum; conditions: 10 days
Summary of the method: as §1

ragweed [5] = experiment: Test C preemergence; assay type: in vivo, Ambrosia artemisiifolia; conditions: 0 to 100 scale (0 no effect, 100 complete control)
Summary of the method: as §1

wheat [6] = experiment: Test C preemergence; assay type: in vivo, Triticum aestivum; conditions: 0 to 100 scale (0 no effect, 100 complete control)
Summary of the method: as §1

ragweed [7] = experiment: Test C postemergence; assay type: in vivo, Ambrosia artemisiifolia; conditions: 10 days
Summary of the method: as §1

blackgrass [8] = experiment: Test C postemergence; assay type: in vivo, Alopecurus myosuroides; conditions: 10 days
Summary of the method: as §1

kochia [9] = experiment: Test C preemergence; assay type: in vivo, Bassia scoparia; conditions: 0 to 100 scale (0 no effect, 100 complete control)
Summary of the method: as §1

barnyardgrass [10] = experiment: Test D flooded paddy test; assay type: in vivo, Echinochloa crus-galli; conditions: 250 g ai/ha, applied to paddy water, visual rating after 13 to 14 days, scale 0 to 100 (0 no effect, 100 complete control)
Summary of the method: (§2)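 2-leaf plants; flood 3 cm above soil; compound dosed into paddy water; greenhouse 13–14 d; visual rating vs controls, 0–100 (100 = complete control); dash = not tested.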

oat, wild [11] = experiment: Test C postemergence; assay type: in vivo, Avena fatua; conditions: 10 days
Summary of the method: as §1

wheat [12] = experiment: Test C postemergence; assay type: in vivo, Triticum aestivum; conditions: 10 days
Summary of the method: as §1

galium = experiment: Test C postemergence; assay type: in vivo, Galium aparine; conditions: 10 days
Summary of the method: as §1

barnyardgrass [13] = experiment: Test C postemergence; assay type: in vivo, Echinochloa crusgalli; conditions: 10 days
Summary of the method: as §1

corn [14] = experiment: Test C postemergence; assay type: in vivo, Zea mays; conditions: 10 days
Summary of the method: as §1

green foxtail [15] = experiment: Test C postemergence; assay type: in vivo, Setaria viridis; conditions: 10 days
Summary of the method: as §1

rice = experiment: Test D flooded paddy test; assay type: in vivo, Oryza sativa; conditions: 250 g ai/ha, applied to paddy water, visual rating after 13 to 14 days, scale 0 to 100 (0 no effect, 100 complete control)
Summary of the method: as §2

ducksalad = experiment: Test D flooded paddy test; assay type: in vivo, Heteranthera limosa; conditions: 250 g ai/ha, applied to paddy water, visual rating after 13 to 14 days, scale 0 to 100 (0 no effect, 100 complete control)
Summary of the method: as §2

ryegrass, Italian [16] = experiment: Test C preemergence; assay type: in vivo, Lolium multiflorum; conditions: 0 to 100 scale (0 no effect, 100 complete control)
Summary of the method: as §1

horseweed = experiment: Test C postemergence; assay type: in vivo, Erigeron canadensis; conditions: 10 days
Summary of the method: as §1

blackgrass [17] = experiment: Test C preemergence; assay type: in vivo, Alopecurus myosuroides; conditions: 0 to 100 scale (0 no effect, 100 complete control)
Summary of the method: as §1

oat, wild [18] = experiment: Test C preemergence; assay type: in vivo, Avena fatua; conditions: 0 to 100 scale (0 no effect, 100 complete control)
Summary of the method: as §1

sedge, umbrella = experiment: Test D flooded paddy test; assay type: in vivo, Cyperus difformis; conditions: 250 g ai/ha, applied to paddy water, visual rating after 13 to 14 days, scale 0 to 100 (0 no effect, 100 complete control)
Summary of the method: as §2

soybean [19] = experiment: Test C preemergence; assay type: in vivo, Glycine max; conditions: 0 to 100 scale (0 no effect, 100 complete control)
Summary of the method: as §1

green foxtail [20] = experiment: Test C preemergence; assay type: in vivo, Setaria viridis; conditions: 0 to 100 scale (0 no effect, 100 complete control)
Summary of the method: as §1

soybean [21] = experiment: Test C postemergence; assay type: in vivo, Glycine max; conditions: 10 days
Summary of the method: as §1

kochia [22] = experiment: Test C postemergence; assay type: in vivo, Bassia scoparia; conditions: 10 days
Summary of the method: as §1

pigweed, palmer [23] = experiment: Test C postemergence; assay type: in vivo, Amaranthus palmeri; conditions: 10 days
Summary of the method: as §1

[24] = Preemergence, 500 g ai/ha, visual rating after 10 days
[25] = Test C, preemergence, 125 g ai/ha
[26] = 125 g ai/ha, postemergence, 0 to 100 scale, 0 no effect, 100 complete control
[27] = Postemergence, 500 g ai/ha, visual 0 to 100 scale (0 no effect, 100 complete control)

SMILES: Cc1cccc2c1O[C@H](C)CN2C(=O)c1cccc(-c2ncn(C(C)C)n2)c1 [Compound 221]
- Plant response rating, Barnyardgrass (barnyardgrass [1]; [24]): 0
- Barnyardgrass plant response rating (barnyardgrass [1]; [25]): 0
- Plant response rating, Pigweed, Palmer (pigweed, palmer [2]): 0
- Plant response rating, Corn (corn [3]; [24]): 0
- Corn plant response rating (corn [3]; [25]): 0
- Plant response rating, Ryegrass, Italian (ryegrass, Italian [4]; [26]): 0
- Plant response rating, Ryegrass, Italian (ryegrass, Italian [4]; [27]): 0
- Plant response rating, Ragweed (ragweed [5]; [24]): 0
- Ragweed plant response rating (ragweed [5]; [25]): 0
- Plant response rating, Wheat (wheat [6]; [24]): 0
- Wheat plant response rating (wheat [6]; [25]): 0
- Plant response rating, Ragweed (ragweed [7]; [26]): 0
- Plant response rating, Ragweed (ragweed [7]; [27]): 0
- Plant response rating, Blackgrass (blackgrass [8]; [26]): 0
- Plant response rating, Blackgrass (blackgrass [8]; [27]): 0
- Plant response rating, Kochia (kochia [9]; [24]): 0
- Kochia plant response rating (kochia [9]; [25]): 0
- Plant response rating, Barnyardgrass (Flood) (barnyardgrass [10]): 0
- Plant response rating, Oat, Wild (oat, wild [11]; [26]): 0
- Plant response rating, Oat, Wild (oat, wild [11]; [27]): 0
- Plant response rating, Wheat (wheat [12]; [26]): 0
- Plant response rating, Wheat (wheat [12]; [27]): 0
- Plant response rating, Galium (galium; [26]): 0
- Plant response rating, Galium (galium; [27]): 0
- Plant response rating, Barnyardgrass (barnyardgrass [13]; [26]): 0
- Plant response rating, Barnyardgrass (barnyardgrass [13]; [27]): 10
- Plant response rating, Corn (corn [14]; [26]): 0
- Plant response rating, Corn (corn [14]; [27]): 0
- Plant response rating, Foxtail, Green (green foxtail [15]; [26]): 0
- Plant response rating, Foxtail, Green (green foxtail [15]; [27]): 0
- Plant response rating, Rice (Flood) (rice): 0
- Plant response rating, Ducksalad (Flood) (ducksalad): 0
- Plant response rating, Ryegrass, Italian (ryegrass, Italian [16]; [24]): 0
- Ryegrass, Italian plant response rating (ryegrass, Italian [16]; [25]): 0
- Plant response rating, Horseweed (horseweed; [26]): 0
- Plant response rating, Horseweed (horseweed; [27]): 20
- Plant response rating, Blackgrass (blackgrass [17]; [24]): 0
- Blackgrass plant response rating (blackgrass [17]; [25]): 0
- Plant response rating, Oat, Wild (oat, wild [18]; [24]): 0
- Oat, Wild plant response rating (oat, wild [18]; [25]): 0
- Plant response rating, Sedge, Umbrella (Flood) (sedge, umbrella): 0
- Plant response rating, Soybean (soybean [19]; [24]): 0
- Soybean plant response rating (soybean [19]; [25]): 0
- Plant response rating, Foxtail, Green (green foxtail [20]; [24]): 0
- Foxtail, Green plant response rating (green foxtail [20]; [25]): 0
- Plant response rating, Soybean (soybean [21]; [26]): 0
- Plant response rating, Soybean (soybean [21]; [27]): 0
- Plant response rating, Kochia (kochia [22]; [26]): 0
- Plant response rating, Kochia (kochia [22]; [27]): 0
- Plant response rating, Pigweed, Palmer (pigweed, palmer [23]; [26]): 0
- Plant response rating, Pigweed, Palmer (pigweed, palmer [23]; [27]): 0
